21 compounds from US10435399B2, “HDAC6 inhibitory heterocyclic compound” (TAKEDA PHARMACEUTICAL COMPANY LIMITED, priority 2017, dated 2019) can be followed below.

In this assay the target is T1, HDAC6 enzyme (Homo sapiens, UniProt Q9UBN7).
T1 construct: transducing full length HDAC6 gene into Sf-9 insect cells; GST; purchased SignalChem; host or cells: Sf-9 insect cells
T1 sequence (Q9UBN7 1-1215): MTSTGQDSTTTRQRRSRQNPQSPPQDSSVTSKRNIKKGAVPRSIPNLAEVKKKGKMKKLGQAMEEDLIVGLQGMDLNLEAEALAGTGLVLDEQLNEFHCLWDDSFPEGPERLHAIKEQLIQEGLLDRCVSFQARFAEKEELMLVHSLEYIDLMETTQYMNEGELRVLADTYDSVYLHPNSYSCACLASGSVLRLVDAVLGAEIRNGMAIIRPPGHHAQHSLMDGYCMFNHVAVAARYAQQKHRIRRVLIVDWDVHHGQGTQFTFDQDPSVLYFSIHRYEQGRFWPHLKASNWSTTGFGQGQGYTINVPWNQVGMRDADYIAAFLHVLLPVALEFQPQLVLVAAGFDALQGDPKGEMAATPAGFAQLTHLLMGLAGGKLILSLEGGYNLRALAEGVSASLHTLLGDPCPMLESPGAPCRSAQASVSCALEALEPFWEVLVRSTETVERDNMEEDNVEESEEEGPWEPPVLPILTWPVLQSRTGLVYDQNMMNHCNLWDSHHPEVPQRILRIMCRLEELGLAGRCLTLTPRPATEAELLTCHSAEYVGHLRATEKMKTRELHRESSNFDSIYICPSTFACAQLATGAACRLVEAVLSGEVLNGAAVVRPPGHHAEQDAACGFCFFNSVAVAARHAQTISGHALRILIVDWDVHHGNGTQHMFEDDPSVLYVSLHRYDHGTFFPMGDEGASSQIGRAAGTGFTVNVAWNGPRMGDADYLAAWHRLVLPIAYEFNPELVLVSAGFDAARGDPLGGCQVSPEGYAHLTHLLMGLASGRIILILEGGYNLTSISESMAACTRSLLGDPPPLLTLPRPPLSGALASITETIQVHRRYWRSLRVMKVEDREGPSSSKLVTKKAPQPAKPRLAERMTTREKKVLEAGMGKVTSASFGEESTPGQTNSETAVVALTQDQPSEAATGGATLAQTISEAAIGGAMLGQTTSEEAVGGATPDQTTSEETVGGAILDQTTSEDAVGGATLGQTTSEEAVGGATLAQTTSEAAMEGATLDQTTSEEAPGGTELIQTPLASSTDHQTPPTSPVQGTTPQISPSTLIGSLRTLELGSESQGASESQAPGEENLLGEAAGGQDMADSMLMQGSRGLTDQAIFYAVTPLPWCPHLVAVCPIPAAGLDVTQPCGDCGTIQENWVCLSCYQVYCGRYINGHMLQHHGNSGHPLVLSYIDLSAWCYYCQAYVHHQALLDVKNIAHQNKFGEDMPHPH
Nature of the assay: HDAC6 enzyme inhibitory activity (HDAC-Glo I/II Assay kit). Type of assay: biochemical. The note with it: 10 μM, wells without enzyme = 100% inhibition; for inhibition at 10 µM: read-out: HDAC6 inhibitory rate (%) (10 μM). Summed up:
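Luminescent HDAC-Glo I/II readout after 20 min room-temperature reaction with substrate-developer, following 60 min compound–enzyme preincubation. Enzyme: full-length HDAC6 from Sf-9 cells, GST-purified; buffer 24 mM Tris-HCl pH 7.5, 0.01% Tween-20, glutathione, salts. Wells lacking enzyme define 100% inhibition.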

Consider `CC(F)(F)C(=O)N[C@@H]1CCCC(F)(F)[C@H]1N1Cc2ncc(-c3nnc(C(F)F)o3)cc2C1=O` [Example 500, N-((1R,2S)-2-(3-(5-(difluoro-methyl)-1,3,4-oxadiazol-2-yl)-5-oxo-5,7-dihydro-6H-pyrrolo[3,4-b]pyridin-6-yl)-3,3-difluoro-cyclohexyl)-2,2-difluoro-propanamide], for which the inhibition at 10 µM was 99%.
For `O=C1c2cc(-c3nnc(C(F)F)o3)ccc2CN1N1CCOCC1c1ccccc1` (stereo not drawn) [Example 501, 6-(5-(difluoro-methyl)-1,3,4-oxadiazol-2-yl)-2-(3-phenyl-morpholin-4-yl) isoindolin-1-one], the inhibition at 10 µM is 98%.
With `O=C1c2cc(-c3nnc(C(F)F)o3)cnc2CN1[C@@H]1CCCC[C@H]1n1cnc2ccccc21` [Example 502, 6-((1R,2R)-2-(1H-benzimidazol-1-yl)cyclohexyl)-3-(5-(difluoromethyl)-1,3,4-oxadiazol-2-yl)-6,7-dihydro-5H-pyrrolo[3,4-b]pyridin-5-one], the inhibition at 10 µM came out at 100%.
On to `Cc1nc2ccccc2n1[C@@H]1CCCC[C@H]1N1Cc2ncc(-c3nnc(C(F)F)o3)cc2C1=O` [Example 503, 3-(5-(difluoromethyl)-1,3,4-oxadiazol-2-yl)-6-((1R,2R)-2-(2-methyl-1H-benzimidazol-1-yl)cyclohexyl)-6,7-dihydro-5H-pyrrolo[3,4-b]pyridin-5-one], for which the inhibition at 10 µM turned out to be 99%.
Take `COC(=O)N1CC[C@@H](N2Cc3ccc(-c4nnc(C(F)F)o4)cc3C2=O)[C@H](c2ccc(F)cc2)C1` [Example 505, methyl (3R,4R)-4-(6-(5-(difluoro-methyl)-1,3,4-oxadiazol-2-yl)-1-oxo-1,3-dihydro-2H-isoindol-2-yl)-3-(4-fluoro-phenyl) piperidine-1-carboxylate]: the inhibition at 10 µM turned out to be 100%.
Consider `CC(F)(F)C(=O)N1CC[C@@H](N2Cc3ccc(-c4nnc(C(F)F)o4)cc3C2=O)[C@H](c2ccc(F)cc2)C1` [Example 506, 6-(5-(difluoro-methyl)-1,3,4-oxadiazol-2-yl)-2-((3R,4R)-1-(2,2-difluoro-propanoyl)-3-(4-fluorophenyl)piperidin-4-yl) isoindolin-1-one], for which the inhibition at 10 µM is 99%.
Regarding `O=C1c2cc(-c3nnc(C(F)F)o3)ccc2CN1[C@@H]1CCN(C(=O)C2(F)CC2)C[C@H]1c1ccc(F)cc1` [Example 507, 6-(5-(difluoro-methyl)-1,3,4-oxadiazol-2-yl)-2-((3R,4R)-1-((1-fluorocyclo-propyl)carbonyl)-3-(4-fluoro-phenyl)piperidin-4-yl)isoindolin-1-one], the inhibition at 10 µM amounted to 100%.
In the case of `O=C1c2cc(-c3nnc(C(F)F)o3)ccc2CN1[C@@H]1CCN(C(=O)C2(C(F)(F)F)CC2)C[C@H]1c1ccc(F)cc1` [Example 508, 6-(5-(difluoro-methyl)-1,3,4-oxadiazol-2-yl)-2-((3R,4R)-3-(4-fluorophenyl)-1-((1-(trifluoro-methyl)cyclo-propyl)carbonyl)pipeiridin-4-yl) isoindolin-1-one], the “HDAC6 inhibitory rate (%) (10 μM)” value came to 100%.
On to `CC(=O)N1CC[C@@H](N2Cc3ccc(-c4nnc(C(F)F)o4)cc3C2=O)[C@H](c2ccc(F)cc2)C1` [Example 509, 2-((3R,4R)-1-acetyl-3-(4-fluorophenyl)piperidin-4-yl)-6-(5-(difluoro-methyl)-1,3,4-oxadiazol-2-yl) isoindolin-1-one], for which the inhibition at 10 µM came to 99%.
As to `O=C(N[C@H]1[C@H](N2Cc3ccc(-c4nnc(C(F)F)o4)cc3C2=O)CCCC1(F)F)OCc1ccccc1` [Example 510, benzyl ((1S,6R)-6-(6-(5-(difluoromethyl)-1,3,4-oxadiazol-2-yl)-1-oxo-1,3-dihydro-2H-isoindol-2-yl)-2,2-difluorocyclohexyl)carbamate], the inhibition at 10 µM came to 100%.
Same read-out and setting: then `N[C@H]1[C@H](N2Cc3ccc(-c4nnc(C(F)F)o4)cc3C2=O)CCCC1(F)F` [Example 511, 2-((1R,2S)-2-amino-3,3-difluorocyclohexyl)-6-(5-(difluoromethyl)-1,3,4-oxadiazol-2-yl)isoindolin-1-one], with 95%; and `O=C1c2cc(-c3nnc(C(F)F)o3)ccc2CN1[C@@H]1CCCC(F)(F)[C@H]1NC(=O)C(F)(F)C(F)(F)F` [Example 513, N-((1S,6R)-6-(6-(5-(difluoromethyl)-1,3,4-oxadiazol-2-yl)-1-oxo-1,3-dihydro-2H-isoindol-2-yl)-2,2-difluorocyclohexyl)-2,2,3,3,3-pentafluoropropanamide], with 99%; and `O=C1c2cc(-c3nnc(C(F)F)o3)ccc2CN1[C@@H]1CCC(F)(F)C[C@@H]1NC(=O)C(F)(F)C(F)(F)F` [Example 515, N-((1S,2R)-2-(6-(5-(difluoro-methyl)-1,3,4-oxadiazol-2-yl)-1-oxo-1,3-dihydro-2H-isoindol-2-yl)-5,5-difluoro-cyclohexyl)-2,2,3,3,3-pentafluoro-propanamide], with 99%.
As for `CC(F)(F)C(=O)N[C@H]1CC(F)(F)CC[C@H]1N1Cc2ccc(-c3nnc(C(F)F)o3)cc2C1=O` [Example 516, N-((1S,2R)-2-(6-(5-(difluoromethyl)-1,3,4-oxadiazol-2-yl)-1-oxo-1,3-dihydro-2H-isoindol-2-yl)-5,5-difluorocyclohexyl)-2,2-difluoropropanamide], the inhibition at 10 µM is 100%.
With `Cn1cc(C2=CCN(C(=O)OC(C)(C)C)CC2)c(N2Cc3ccc(-c4nnc(C(F)F)o4)cc3C2=O)n1` [Example 518, tert-butyl 4-(3-(6-(5-(difluoro-methyl)-1,3,4-oxadiazol-2-yl)-1-oxo-1,3-dihydro-2H-isoindol-2-yl)-1-methyl-1H-pyrazol-4-yl)-3,6-dihydro-pyridine-1(2H)-carboxylate], the inhibition at 10 µM came to 99%.
On the same count and under the same terms, then `Cn1cc(C2=CCC(NC(=O)OC(C)(C)C)CC2)c(N2Cc3ccc(-c4nnc(C(F)F)o4)cc3C2=O)n1` (stereo not drawn) [Example 519, tert-butyl (4-(3-(6-(5-(difluoromethyl)-1,3,4-oxadiazol-2-yl)-1-oxo-1,3-dihydro-2H-isoindol-2-yl)-1-methyl-1H-pyrazol-4-yl)cyclohex-3-en-1-yl)carbamate], with 99%; and `CC(C)(C)OC(=O)NC1CC=C(c2cc(F)ccc2N2Cc3ccc(-c4nnc(C(F)F)o4)cc3C2=O)CC1` (stereo not drawn) [Example 520, tert-butyl (4-(2-(6-(5-(difluoromethyl)-1,3,4-oxadiazol-2-yl)-1-oxo-1,3-dihydro-2H-isoindol-2-yl)-5-fluorophenyl)cyclohex-3-en-1-yl)carbamate], with 99%; and `O=C1c2cc(-c3nnc(C(F)F)o3)ccc2CN1[C@@H]1CCCC[C@H]1Nc1ccccn1` [Example 521, 6-(5-(difluoromethyl)-1,3,4-oxadiazol-2-yl)-2-((1R,2R)-2-(pyridin-2-ylamino)cyclohexyl)isoindolin-1-one], with 99%.
For the compound `Cn1cc(C2CCN(C(=O)OC(C)(C)C)CC2)c(N2Cc3ccc(-c4nnc(C(F)F)o4)cc3C2=O)n1` [Example 522, tert-butyl 4-(3-(6-(5-(difluoromethyl)-1,3,4-oxadiazol-2-yl)-1-oxo-1,3-dihydro-2H-isoindol-2-yl)-1-methyl-1H-pyrazol-4-yl)piperidine-1-carboxylate], the inhibition at 10 µM amounted to 99%.
On to `Cn1cc(C2CCC(NC(=O)OC(C)(C)C)CC2)c(N2Cc3ccc(-c4nnc(C(F)F)o4)cc3C2=O)n1` (stereo not drawn) [Example 523, tert-butyl (4-(3-(6-(5-(difluoromethyl)-1,3,4-oxadiazol-2-yl)-1-oxo-1,3-dihydro-2H-isoindol-2-yl)-1-methyl-1H-pyrazol-4-yl)cyclohexyl)carbamate], for which the inhibition at 10 µM was 99%.
Regarding `CC(C)(C)OC(=O)N1CCC(c2cc(F)ccc2N2Cc3ccc(-c4nnc(C(F)F)o4)cc3C2=O)CC1` [Example 524, tert-butyl 4-(2-(6-(5-(difluoromethyl)-1,3,4-oxadiazol-2-yl)-1-oxo-1,3-dihydro-2H-isoindol-2-yl)-5-flluorophenyl)piperidine-1-carboxylate], the inhibition at 10 µM was 99%.
